Data from patent publication US6927234B2, “Xanthone derivatives, method of production thereof, and pharmaceutical composition containing the same” (Kuboyama Bio Ken Inc., priority 2003, dated 2005).
Read-outs that look alike come from different tables or passages of the source. Marks after values point to notes of the source that are not given here.

Assays:
Sarcoma 180 [1] = assay: Sarcoma 180 assay, single intraperitoneal dose (Example 7); assay type: in vivo, Swiss-Webster mice
Description: [table] [table] The tumor stock was a Sarcoma 180 which was started in the laboratory from an American Type Culture Collection. This stock culture has been passed at weekly intervals as an ascites in non-treated Swiss-Webster mice. The current studies were all carried out with Swiss-Webster mice obtained from Animal Technologics Ltd., Kent, Wash. To prepare the inoculum, the ascites fluid from a mouse with a 7-10 day ascites is aspirated using a sterile technique. […] This was the tumor suspension that was then injected into the mice. The final dilution was plated on trypticase soy agar to determine if it was free of contamination. One tenth (0.1 ml) of the above suspension was inoculated into the left hind leg muscle (hamstring muscle mass) of each mouse. The inoculated mice were placed into one large cage and then randomly segregated into groups of five mice. The mice were housed in shoe box cages on wood shavings with free access to water and laboratory chow. The mice were weighed on the day of inoculation, on day 7, day 10, and at time of sacrifice. Treatment of the mice was initiated the day after transplant. At the end of the observation period, the mice were sacrificed by ether anesthesia. The skin over the left hind leg was removed to expose the tumor and the leg and tumor were removed at the hip joint. Any residual skin was removed and the legs with tumors were weighed individually. Ten normal legs (right legs) were prepared in a similar manner and weighed. The mean value of the normal leg was subtracted from the weight of the leg with the tumor to give an estimate of the actual tumor weight: […]

Sarcoma 180 [2] = assay: Sarcoma 180 assay, oral dosing, 12-day treatment period (Example 5); assay type: in vivo, Swiss-Webster mice; details: 12 days treatment; for % Tumor Inhibition / Body wt. G (avg.): oral gavage
Protocol: (§1) The compound obtained in Example 1 was dissolved in ethyl alcohol at 10 mg/ml. Dilutions of this stock solution were made to 100, 10 and 1 mcg per kilo body weight of the mice. The Sarcoma 180 assay was carried out as described below.
The tumor stock was a Sarcoma 180, which was started in the laboratory from an American Type Culture Collection. This stock culture has been passed at weekly intervals as an ascites in non-treated Swiss-Webster mice.
(§2) The current studies were all carried out with Swiss-Webster mice obtained from Animal Technologics Ltd., Kent, Wash. To prepare the inoculum, the ascites fluid from a mouse with a 7-12 day ascites is aspirated using a sterile technique. The tumor cells are checked for viability using the trypan-blue staining technique. Once a cell count is established, the tumor cells are diluted with normal saline or phosphate buffered saline to obtain a final concentration of 1 to 2×10^6 cells per mm^3. This is the tumor suspension that is then injected into the mice. The final dilution is plated on trypticase soy agar to determine if it is free of contamination.
(§3) One tenth (0.1 ml) of the above suspension is inoculated into the left hind leg muscle (hamstring muscle mass) of each mouse. The inoculated mice are placed into one large cage and then randomly segregated into groups of five mice. The mice are housed in shoe box cages on wood shavings with free access to water and laboratory chow. The mice are weighed on the day of inoculation, on day 7, day 12, and at time of sacrifice.
Treatment of the mice was initiated the day after transplant. The treatment period was 12 days.
(§4) At the end of the observation period, the mice are sacrificed by ether anesthesia. The skin over the left hind leg is removed to expose the tumor and the leg and tumor are removed at the hip joint. Any residual skin is removed and the legs with tumors are weighed individually. Ten normal legs (right legs) are prepared in a similar manner and weighed. The mean value of the normal leg is subtracted from the weight of the leg with the tumor to give an estimate of the actual tumor weight. [formula]

[3] = tested on: adjuvant-induced arthritis; assay type: in vivo, Sprague-Dawley rats; details: gavage once per day for 7 days; for Rat paw wt.: five rats per group
Protocol: Adjuvant-induced arthritis responds to both steroids and non-steroids. The degree of inflammation is assessed by measuring differences in foot weight and/or the foot volume.
Rats weighing between 150-200 g were purchased from ATL, in Kent Wash. They were male Sprague-Dawley rats. The animals were kept individually in stainless steel cages with free access to water and feed (Harlan Teklan Rodent Diet). The light cycle was maintained at 12 hours light and 12 hours dark. The temperature was maintained at 22° C.±3° C. with a relative humidity of 40 to 70%.
[…] The test compound and hydrocortisone were given by gavage.
The test materials were delivered orally (by gavage) once per day for 7 days.
Male Sprague-Dawley rats (150-200 g) were sensitized by injecting Fruend's complete adjuvant (0.5% suspension of killed mycobacterium tuberculosis (H37RA, Difco, in mineral oil)). A 0.1 ml aliquot was administered intradermally at a plantar site on the right hind leg of each rat.
The test materials were given orally (by gavage) to each of 5 rats per treatment group once per day for 7 days. Administration of the test materials was initiated on the day of sensitization.
The left hind paw was measured just before sensitization an again on Day 7. The plantar edema inhibitory rate and the body weight gain were determined by comparison with the non-sensitized rat groups.
The paw weights for each rat group were averaged. Anti-inflammatory activity was determined by comparing paw weights calculated as follows: [formula]

Sarcoma 180 [4] = assay: Sarcoma 180 assay, oral gavage for five days, sacrifice on Day 10 (Example 4); assay type: in vivo, Swiss-Webster mice; details: for % Tumor Inhibition: sacrificed Day 10, female mice
Protocol: as §1
The tumor stock was a Sarcoma 180 which was started in the laboratory from an American Type Culture Collection. This stock culture has been passed at weekly intervals as an ascites in non-treated Swiss-Webster mice.
as §2, with “7-10” for “7-12”, “sterile” for “sterile technique. The tumor cells are checked for viability using the trypan-blue staining”
as §3, with “10,” for “12,”
Treatment of the mice was initiated the day after transplant and then continued for five days.
as §4, with “period, 10 days,” for “period,”, “sacrificed either” for “sacrificed”, “by cervical dislocation or” for “by”, “weight.” for “weight. [formula]”

[5] = 1 mg/kg, single dose intraperitoneally
[6] = 10 mg/kg, single dose intraperitoneally
[7] = 100 mg/kg, single dose intraperitoneally

`O=c1c2ccccc2oc2ccccc12` [Compound of Example 3, Xanthone] was tested. Which “% Inhibition” value (Sarcoma 180 [1]; [5]) did it give?
Its value is 80%.

And the “Net Tumor wt.” value (Sarcoma 180 [1]; [5])?
The value was 0.3 g.

And the “% Inhibition” value (Sarcoma 180 [1]; [6])?
The value was 100%.

What about the “Net Tumor wt.” value (Sarcoma 180 [1]; [6]) of the same compound?
The value was 0 g.

And the “% Inhibition” value (Sarcoma 180 [1]; [7])?
Its value is 100%.

What about the “Net Tumor wt.” value (Sarcoma 180 [1]; [7]) of the same compound?
The value was 0 g.

What about the evidence of tumor (Sarcoma 180 [1]; 10 and 100 mg/kg body weight, single dose intraperitoneally) of the same compound?
Its evidence of tumor is “no evidence of tumor”.

What about the Body weight (Sarcoma 180 [1]; Day 1, 1 mg/kg single ip) of the same compound?
Its Body weight is 24.2 g.

What about the Body weight (Sarcoma 180 [1]; Day 1, 10 mg/kg single ip) of the same compound?
Its Body weight is 23.8 g.

And the Body weight (Sarcoma 180 [1]; Day 1, 100 mg/kg single ip)?
The Body weight was 23.4 g.

What about the Body weight (Sarcoma 180 [1]; Day 7, 1 mg/kg single ip) of the same compound?
The Body weight was 26 g.

What about the Body weight (Sarcoma 180 [1]; Day 7, 10 mg/kg single ip) of the same compound?
Its Body weight is 26.1 g.

What about the Body weight (Sarcoma 180 [1]; Day 7, 100 mg/kg single ip) of the same compound?
Its Body weight is 26.2 g.

What about the Body weight (Sarcoma 180 [1]; Day 10, 1 mg/kg single ip) of the same compound?
Its Body weight is 26.2 g.

What about the Body weight (Sarcoma 180 [1]; Day 10, 10 mg/kg single ip) of the same compound?
The Body weight was 26.4 g.

What about the Body weight (Sarcoma 180 [1]; Day 10, 100 mg/kg single ip) of the same compound?
Its Body weight is 26.5 g.

What does the source list for `O=C(O)Cc1c2cc[nH]c2cc2c(=O)c3ccccc3oc12` [Compound of Example 1]?
toxicity from final body weights (Sarcoma 180 [2]; 1 and 10 mcg/kg, oral): not toxic; visible tumor (Sarcoma 180 [2]; 1 and 10 mcg/kg, oral): no visible tumor; % Tumor Inhibition (Sarcoma 180 [2]; 1 mcg/kg): 98.5* %; Body wt. G (avg.) (Sarcoma 180 [2]; 1 mcg/kg): 29.2 G; % Tumor Inhibition (Sarcoma 180 [2]; 10 mcg/kg): 100* %; Body wt. G (avg.) (Sarcoma 180 [2]; 10 mcg/kg): 28.7 G; % Inhibition (rat paw inflammation) ([3]; 1 mcg/kg body wt.): 95.2%; Rat paw wt. ([3]; 1 mcg/kg body wt.): 0.324 g; % Tumor Inhibition (Sarcoma 180 [4]; 1 mcg/kg): 43%; % Tumor Inhibition (Sarcoma 180 [4]; 10 mcg/kg): 100%; % Tumor Inhibition (Sarcoma 180 [4]; 100 mcg/kg): 100%; toxicity as indicated by the body weights (Sarcoma 180 [4]; any dose (1, 10, 100 mcg/kg)): No toxicity

Which results are given for `C[C@]12CCC(=O)C=C1CC[C@@H]1[C@@H]2[C@@H](O)C[C@@]2(C)[C@H]1CC[C@]2(O)C(=O)CO` [hydrocortisone]?
% Inhibition (rat paw inflammation) ([3]; 10 mg/kg body wt.): 42%; Rat paw wt. ([3]; 10 mg/kg body wt.): 0.98 g
